Source: patent US7427395B2, “Chemotherapeutic agent-incorporated pharmaceutical preparation” (Genomidea Inc., priority 2002, dated 2008)
Read-outs that look alike come from different tables or passages of the source.

What was measured:
colon carcinoma CT26 = test: In vivo experiment: tumor volume of subcutaneously transplanted CT26 after administration into the tumor (Example 2); details: for average tumor volume (mean): 100 μl/mouse into the tumor, n=8
Protocol: A microtube containing the sample was centrifuged at 15,000 rpm for 15 minutes at 4° C. to give the HVJ-E vector as a precipitate, and the supernatant was removed. […] Further, 2 μl of 3% Triton-X100 was added thereto to the final concentration of 0.1%, which was then kept on ice for 15 minutes. Thereafter, 500 μl PBS solution was added thereto. The microtube was centrifuged at 15,000 rpm for 15 minutes at 4° C., and the supernatant was removed without removing the precipitate, and 500 μl PBS solution was added thereto. The microtube was centrifuged again at 15,000 rpm for 15 minutes at 4° C., and the supernatant was removed without removing the precipitate. The resulting precipitate was suspended in 120 μl PBS.
In this animal experiment, BALB/c mice (8-week-old, male) were used. […] The CT-26 cells to be transplanted were suspended in DMEM medium containing 10% FCS, and 5×10^6 cells (100 μl PBS/mouse) were transplanted in the back. The mice were anesthetized by intraperitoneal administration of 500 μl of 20-fold-diluted Nembutal injection. The volume of the transplanted cancer cells was estimated by calculation of major axis×minor axis×minor axis/2. When the diameter of the tumor reached 7 to 8 mm one week after transplantation, 100 μl of the sample prepared above was administered into the site of the cancer in the mouse. On Days 7, 10, 13, 16 and 19 (that is, 3-day intervals) after transplantation of the cancer cells, the tumor diameter was measured to evaluate the anticancer effect. The number of animals was 8 in each group.

[1] = tested on: mouse colon carcinoma cell CT26; details: 30 min at 37° C., counted 2 days later
Protocol: A microtube containing the sample was centrifuged at 15,000 rpm for 15 minutes at 4° C. to give the HVJ-E vector as a precipitate, and the supernatant was removed. […] Further, 2 μl of 3% Triton-X100 was added thereto to prepare a sample containing Triton-X100 at a final concentration of 0.1%, which was then left on ice for 15 minutes. Thereafter, 500 μl PBS solution was added thereto. The microtube was centrifuged at 15,000 rpm for 15 minutes at 4° C., and the supernatant was removed without removing the precipitate, and 500 μl PBS solution was added again to the precipitate. The microtube was centrifuged again at 15,000 rpm for 15 minutes at 4° C., and the supernatant was removed without removing the precipitate.
The resulting precipitate was suspended in 180 μl PBS, and the resulting sample solution was pipetted in a volume of 30 μl/microtube into 6 microtubes. Five microlitters of protamine sulfate solution prepared at 5 mg/ml and 500 μl DMEM solution (Dulbecco's modified Eagle medium) were added to each tube.
The above sample solution was added to mouse colon carcinoma cell CT26 prepared on a 6-well plate. The plate was kept for 30 minutes in an incubator at 37° C., and then the medium was exchanged with 500 μl medium (DMEM containing 10% FCS). The cells were incubated for 2 days in a CO2 incubator at 37° C. Two days later, the number of viable cells was counted to evaluate the anticancer effect.

[2] = tested on: Mouse colon cancer-derived CT-26 cells; test: In vivo experiment (2): tumor volume and tumor weight of transplanted CT-26, HVJ-E/BLM into the tumor with or without intraperitoneal CDDP (Example 3); parameters: species or system BALB/cAnNCrj male mice
[3] = Day 16 (9 days after sample administration)

Row | Compound | average tumor volume (mean) (colon carcinoma CT26; Day 7 (time of sample administration)) | average tumor volume (mean) (colon carcinoma CT26; Day 10 (Day 3 after sample administration)) | average tumor volume (mean) (colon carcinoma CT26; Day 13) | tumor volume shrinkage effect relative to the PBS administration group (0%) (colon carcinoma CT26; [3]) | average tumor volume (mean) (colon carcinoma CT26; [3]) | average tumor volume (mean) (colon carcinoma CT26; Day 16 (9 days after sample administration), listed as BLM) | antitumor effect in vivo (in words) (colon carcinoma CT26; direct administration into the solid tumor) | Number of viable cells (mean) ([1]; 1/50 bleomycin group: bleomycin 50 μg/DMEM 500 μl/well) | Number of viable cells (mean) ([1]; 1/500 bleomycin group: bleomycin 5 μg/DMEM 500 μl/well) | Number of viable cells (mean) ([1]; 1/500 bleomycin group: bleomycin 5 μg/DMEM 500 μl/well, listed as bleomycin) | Number of viable cells (mean) ([1]; 1/5,000 bleomycin group: bleomycin 500 ng/DMEM 500 μl/well) | Number of viable cells (mean) ([1]; 1/5,000 bleomycin group: bleomycin 500 ng/DMEM 500 μl/well, listed as bleomycin) | tumor weight on Day 21 after administration ([2]; CDDP 0.2 mg/body i.p. once, alone or with 13 mg/tumor HVJ-E/BLM into the tumor) | average tumor volume on Day 21 ([2]; CDDP 0.2 mg/body i.p. once, alone or with 13 mg/tumor HVJ-E/BLM into the tumor, 10 mice) | tumor weight on Day 21 after administration ([2]; CDDP 0.4 mg/body i.p. once, alone or with HVJ-E into the tumor) | average tumor volume on Day 21 ([2]; CDDP 0.4 mg/body i.p. once, 3 mice)
1 | bleomycin | 158.4 mm^3 | 413.70 mm^3 | 754.7 mm^3 | 3.4% | 1234.6 mm^3 | 1,235 mm^3 | Antitumor effect was hardly recognized | 81800 | 164600 | 164,600 | 196800 | 196,800 |  |  |  | 
2 | [NH2][Pt]([NH2])([Cl])[Cl] [CDDP, cisplatin] |  |  |  |  |  |  |  |  |  |  |  |  | 1619.79 mg | 1720.14 mm^3 | 1164.13 mg | 1367.62 mm^3
